Results: US20090246209A1, “GNRH ANALOGUES FOR TREATMENT OF URINARY INCONTINENCE” (priority 2000, published 2009)
Where “and” joins values, the source holds several entries; their conditions need not be identical. Equal entries are not always repeated. Entries after “also recorded” stand apart in the source; their conditions may differ.

How the values were obtained:
[1] = tested on: bitches suffering from urinary incontinence after spaying; assay: GnRH analogue slow release implant in bitches with urinary incontinence after spaying; assay type: in vivo, dog; conditions: for Side effects: dash = none
Experimental: Additionally, for a limited period the dogs were treated with phenylpropanolamine in a dosage of 1.5 mg/kg BW tid orally.
After discontinuation of the shortacting phenylpropanolamine 8 bitches remained continent. Their continence was therefore achieved solely by the treatment with the composition as described in the present invention. Seven out of fifteen dogs seemed to be much happier and in none of the dogs did the general condition deteriorate. […] The respective results are shown in more detail in table 1.

[2] = tested on: client owned dogs suffering from urinary incontinence; assay: double-blind, placebo-control study of long-acting GnRH analogue in incontinent dogs; assay type: in vivo, dog
Experimental: In a second ongoing study, 16 client owned dogs suffering from urinary incontinence were enrolled in a double-blind, placebo-control study. In the initial phase of the study, dogs were randomly assigned to treatment with a long-acting GnRH analogue (leuprolide acetate) or placebo (dog owners and the investigators were blinded to treatment) along with a short course of therapy with phenylpropanolamine. 5 weeks after treatment with drug or placebo, dogs were evaluated and, if not fully continent, treated with a long-acting GnRH analogue (leuprolide acetate) in an open label phase of the study. To date only 1 of 10 dogs treated with placebo became continent vs. […] treated with drug during the blinded portion of the study. Overall, the results generated thus far indicate […] dogs treated with the long-acting GnRH analogue became continent and […] improved after discontinuation of the short acting phenylpropanolamine. Only 1 dog of 15 treated with the GnRH analogue was considered not to have improved following treatment with the drug.

[3] = tested on: menopausal person suffering from stress incontinence; assay: 24 hour pad test in a menopausal person with stress incontinence; assay type: in vivo, human; conditions: single dose of 3.75 mg; 2 weeks after treatment; before treatment 10 to 130 ml daily
Experimental: A second menopausal person, suffering from stress incontinence for at least 6 years, was treated with a single dose of 3.75 mg of leuprolide acetate. 24 hour pad tests conducted prior to treatment with the drug indicated they lost between 10 and 130 ml of urine on a daily basis due to their incontinence.

[4] = tested on: cocker spaniel bitches showing excessive growth of the undercoat due to spaying; assay: coat quality in spayed cocker spaniel bitches with excessive growth of the undercoat; assay type: in vivo, dog; conditions: 5 mg slow release s.c. implant
Experimental: Two cocker spaniel bitches belonging to the same owner were showing excessive growth of the undercoat due to spaying. […] Both dogs were first clinically examined and thereafter a GnRH analogue (Deslorelin) in a dosage of 5 mg, in slow release form, was subcutaneously implanted between the shoulder blades.

[5] = tested on: perimenopausal person with urge incontinence and hotflushes; assay: treatment of a perimenopausal person with urge incontinence and hotflushes; assay type: in vivo, human; conditions: 3.75 mg; one person
[6] = 11.25 mg slow release s.c. implant, with PPA

CCNC(=O)[C@@H]1CCCN1C(=O)[C@H](CCCNC(=N)N)NC(=O)[C@H](CC(C)C)NC(=O)[C@@H](CC(C)C)NC(=O)[C@H](Cc1ccc(O)cc1)NC(=O)[C@H](CO)NC(=O)[C@H](Cc1c[nH]c2ccccc12)NC(=O)[C@H](Cc1c[nH]cn1)NC(=O)[C@@H]1CCC(=O)N1 [Leuprorelinacetate, Leuprolid acetate]
Duration of effect after treatment [1, 6]: >64 days | Effect on incontinence [1, 6]: 100% | Duration of effect after treatment ([1]; 11.25 mg slow release s.c. implant, without PPA): 0 days | Duration of effect after treatment ([1]; 11.25 mg slow release s.c. implant, without PPA, listed as Leuprorelin acetate): >14 days | dogs that became continent ([2]; blinded portion, 5 weeks after treatment, with short course of phenylpropanolamine, placebo 1 of 10): 3 to 8 dogs | dogs considered not to have improved ([2]; overall, of 15 dogs treated): 1 dog | dogs that became continent ([2]; overall, of 15 dogs treated, after discontinuation of phenylpropanolamine): 6 dogs | dogs that improved ([2]; overall, of the remaining dogs, after discontinuation of phenylpropanolamine): 9 dogs | daily urine loss (pad test) [3]: 1 mL

Buserelin acetate [Buserelinacetate]
Side effects ([1]; 6.3 mg slow release s.c. implant): agile, more | Duration of effect after treatment ([1]; 6.3 mg slow release s.c. implant, without PPA): 44 days and 83 days

Deslorelin acetate [Deslorelinacetate]
Side effects ([1]; 6 mg slow release s.c. implant): agile, more; also recorded: More playfull | Effect on incontinence ([1]; 6 mg slow release s.c. implant, with PPA (phenylpropanolamine)): 100% | Side effects ([1]; 12 mg slow release s.c. implant): More self-; also recorded: More tolerant; also recorded: less aggres- | Effect on incontinence ([1]; 12 mg slow release s.c. implant, with PPA): 80% and 100% | coat quality ([4]; 5 weeks after the injection, both dogs): obvious amelioration of the coat quality | signs of baby coat ([4]; 21 weeks after injection): no signes of “baby coat” were apparent anymore

Triptorelin acetate [Triptorelinacetate]
Effect on incontinence ([1]; 3.75 mg slow release s.c. implant, 36 kg bitch, dose too low): Not effec- | Duration of effect after treatment ([1]; 3.75 mg slow release s.c. implant, dose too low): 0 | period of improvement of both symptoms [5]: about 4 weeks | urge incontinence and hotflushes, reported change [5]: improved considerably
